Laboratory results as given in paper PMC12833730, “Discovery of a First‐in‐Class Covalent Allosteric SHP1 Inhibitor with Immunotherapeutic Activity” (Angewandte Chemie (International Ed. in English), 2025).
Entries after “also recorded” stand apart in the source; their conditions may differ. Where two headings read alike, the source gives them in different places.

Key:
SHP2 = biological target: T1, SHP2 (Homo sapiens, UniProt Q06124); experiment: IC50 after preincubation, DiFMUP phosphatase assay; type: biochemical
T1 construct: SHP2, residues 224-528; made in house; host or cells: E. coli BL21(DE3)
T1 sequence (Q06124 224-528): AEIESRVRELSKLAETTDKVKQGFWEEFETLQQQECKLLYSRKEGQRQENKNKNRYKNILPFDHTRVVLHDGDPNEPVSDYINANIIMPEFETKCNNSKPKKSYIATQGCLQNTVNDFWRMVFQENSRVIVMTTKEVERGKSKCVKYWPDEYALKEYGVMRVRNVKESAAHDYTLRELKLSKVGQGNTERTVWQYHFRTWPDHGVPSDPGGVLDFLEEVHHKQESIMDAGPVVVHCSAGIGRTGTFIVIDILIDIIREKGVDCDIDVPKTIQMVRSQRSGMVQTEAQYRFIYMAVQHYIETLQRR
Method: (§1) To further confirm the time-dependent inhibition and determine the IC50 of acquired hits, repurchased compounds from Enamine were serially diluted in a 96-well plate, followed by the addition of proteins at 200 nM. After 10-minute and 60-minute preincubation, 2 µL of the mixture was transferred into 100 µM 6,8-Difluoro-4-Methylumbelliferyl Phosphate (DiFMUP, Invitrogen, cat# D6567) at a final volume of 200 µL. The reaction was allowed to proceed for 5 minutes and quenched by the addition of 40 µl of a 160 µM solution of bpV(Phen) (Sigma-Aldrich, cat# SML0889). The fluorescence signal was measured using a CLARIOstar Plus Microplate Spectrophotometer (BMG Labtech) using excitation and emission wavelengths of 340 nm and 450 nm, respectively. Data were fitted using Prism GraphPad 10.1.1.

PTP1B = biological target: T2, PTP1B (Homo sapiens, UniProt P18031); experiment: IC50 after preincubation, DiFMUP phosphatase assay; type: biochemical
T2 construct: PTP1B, residues 1-321; made in house; host or cells: E. coli BL21(DE3)
T2 sequence (P18031 1-321, species assumed): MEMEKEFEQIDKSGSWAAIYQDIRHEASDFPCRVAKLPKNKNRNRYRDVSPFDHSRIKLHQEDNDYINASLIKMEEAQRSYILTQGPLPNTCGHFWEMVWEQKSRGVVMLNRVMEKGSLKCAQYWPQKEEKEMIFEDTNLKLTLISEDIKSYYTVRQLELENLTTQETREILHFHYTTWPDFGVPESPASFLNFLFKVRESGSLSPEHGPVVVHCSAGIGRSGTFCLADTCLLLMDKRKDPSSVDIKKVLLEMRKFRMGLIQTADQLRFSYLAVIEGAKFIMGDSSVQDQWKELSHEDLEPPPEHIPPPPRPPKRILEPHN
Method: as §1

PTPN22 = biological target: T3, PTPN22 (Homo sapiens, UniProt Q9Y2R2); experiment: IC50 after preincubation, DiFMUP phosphatase assay; type: biochemical
T3 construct: LYP/PTPN22, residues 1-294; made in house; host or cells: E. coli BL21(DE3)
T3 sequence (Q9Y2R2 1-294): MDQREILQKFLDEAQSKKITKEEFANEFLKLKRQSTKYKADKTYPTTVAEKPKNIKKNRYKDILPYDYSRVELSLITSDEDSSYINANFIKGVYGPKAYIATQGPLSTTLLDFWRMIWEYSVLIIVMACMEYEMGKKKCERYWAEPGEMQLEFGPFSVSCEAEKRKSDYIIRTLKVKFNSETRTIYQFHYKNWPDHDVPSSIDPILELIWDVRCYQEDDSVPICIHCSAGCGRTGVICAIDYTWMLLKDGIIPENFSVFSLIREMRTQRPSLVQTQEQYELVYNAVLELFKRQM
Method: as §1

[1] = tested on: LCK, PLCγ and ERK1/2 phosphorylation in Jurkat T cells; experiment: TCR-LCK signaling immunoblot; type: cell-based; details: dose response
Method: Supernatants from lysed cells were reduced, treated with iodoacetamide to cap thiol residues, and digested by trypsin for bottom‐up proteomics analysis. […] LCK is the direct substrate of SHP1 and ERK1/2, and PLCγ is the downstream effector protein of LCK‐mediated TCR signaling. […] Statistical analyses were performed with Graphpad Prism software 10.4.2 through the one‐way ANOVA test using Turkey post‐hoc comparison. ****p < 0.0001 was considered significant.
To further confirm M029 cellular target engagement, we investigated the effect of M029 on T cell function. SHP1 plays a negative role in T cells, and deletion of SHP1 in T cells lowers the activation threshold and enhances antitumor immunity.^[ [30], [31], [32], [33] ^] Mechanistically, SHP1 attenuates T cell receptor (TCR) signaling via dephosphorylation of the lymphocyte‐specific protein tyrosine kinase LCK.^[ [31], [84], [85], [86] ^] T cell activation leads to increased expression and secretion of interleukin 2 (IL‐2)^[ [87] ^] while the removal of SHP1 in T cells enhances IL‐2 production, cell proliferation, and cytolysis capacity.^[ [30], [32] ^] Accordingly, we sought to assess the impact of targeting SHP1 with M029 on TCR‐LCK signaling and T cell activation. […] M029 also dose‐dependently promoted IL‐2 production (Figure 4c). […] These findings corroborate that the observed increase in LCK phosphorylation and its downstream signaling indeed resulted from SHP1 inhibition by M029.
Immunoblotting: Cultured cells were lysed with ice-cold lysis buffer (50 mM Tris, pH 8.0, 150 mM NaCl, 10% Glycerol, 1% Triton-X-100) supplied with phosphatase inhibitor (Bimake) and protease inhibitor mixture (Roche Applied Science). Equal amounts of protein were resolved by SDS-PAGE, transferred to a nitrocellulose membrane, and subjected to immunoblotting. […]

MC38 colorectal tumors = experiment: MC38 syngeneic tumor model; type: in vivo, C57BL/6 mice; details: IP 15 mg/kg as printed in Figure S5

IC50 (SHP2; 10-min preincubation, read-out: SHP2 IC50, 10 min) [µM]	IC50 (SHP2; 60-min preincubation, read-out: SHP2 IC50, 60 min) [µM]	IC50 (PTP1B; column headed 60 min (c7), read-out: PTP1B IC50, 60 min) [µM]	IC50 (PTPN22; 10-min preincubation, read-out: PTPN22 IC50, 10 min) [µM]	IC50 (PTPN22; 60-min preincubation, read-out: PTPN22 IC50, 60 min) [µM]	Structure (SMILES)	IC50 (SHP2; 60-min preincubation, read-out: 60 min IC50, SHP2) [µM]	IC50 (PTP1B; 60-min preincubation, read-out: 60 min IC50, PTP1B) [µM]	IC50 (PTPN22; 60-min preincubation, read-out: 60 min IC50, PTPN22) [µM]	TCR-mediated phosphorylation of LCK, PLCγ and ERK1/2 [1]	MC38 tumor progression, IP dosage (MC38 colorectal tumors)
					N#Cc1ccsc1NS(=O)(=O)c1ccc(NC(=O)CCl)cc1 [M029, 2-Chloro-N-(4-(N-(3-cyanothiophen-2-yl)sulfamoyl)phenyl)acetamide]	58.2 ± 4.6	152 ± 16.6	88.6 ± 20.1	upregulation; also recorded: dose dependently increased	delayed MC38 tumor progression
> 200	> 200	> 200	> 200	> 200	O=C(CCl)Nc1ccc(S(=O)(=O)Nc2nccs2)cc1 [Z57117023, 2-chloro-N-(4-(N-(thiazol-2-yl)sulfamoyl)phenyl)acetamide]					
